23 molecules from patent US20160326142A1, “PYRAZOLE CARBOXAMIDE COMPOUNDS, COMPOSITIONS AND METHODS OF USE” (Genentech, Inc., priority 2012, published 2016) can be followed below.

The target of this assay is T1, ITK (Homo sapiens, UniProt Q08881).
T1 construct: purchased Invitrogen PV3875
T1 sequence (Q08881 1-620): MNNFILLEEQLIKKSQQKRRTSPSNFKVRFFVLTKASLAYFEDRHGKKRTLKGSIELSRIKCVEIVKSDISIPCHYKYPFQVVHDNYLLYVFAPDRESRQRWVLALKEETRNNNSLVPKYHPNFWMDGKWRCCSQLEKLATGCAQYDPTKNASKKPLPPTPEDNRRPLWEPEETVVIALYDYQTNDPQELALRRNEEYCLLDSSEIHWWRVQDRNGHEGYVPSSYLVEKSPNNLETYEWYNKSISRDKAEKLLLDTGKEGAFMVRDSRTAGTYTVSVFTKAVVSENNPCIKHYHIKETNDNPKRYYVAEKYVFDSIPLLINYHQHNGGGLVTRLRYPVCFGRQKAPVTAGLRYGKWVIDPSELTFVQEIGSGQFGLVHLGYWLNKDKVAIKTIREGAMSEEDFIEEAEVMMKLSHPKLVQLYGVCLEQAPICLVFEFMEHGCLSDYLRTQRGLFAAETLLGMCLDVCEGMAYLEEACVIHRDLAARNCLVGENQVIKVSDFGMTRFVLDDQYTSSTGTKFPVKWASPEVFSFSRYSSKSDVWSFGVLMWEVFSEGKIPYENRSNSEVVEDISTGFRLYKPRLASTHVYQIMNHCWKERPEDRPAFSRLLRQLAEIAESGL
The assay can be described thus: ITK enzyme assay (Caliper or LCMS peptide phosphorylation). Type of assay: biochemical. Conditions: purified ITK (Invitrogen PV3875), 20 μM ATP, Ki by Morrison's quadratic equation. The method, then: The ability of purified ITK (Invitrogen PV3875) to catalyze peptide phosphorylation is monitored using a Caliper LabChip 3000 microfluidic unit (Caliper assay) or by liquid chromatography-mass spectrometry (LCMS) using a Waters Acquity system (LCMS assay). […] Reactions are quenched by the addition of 2,2′,2″,2′″-(ethane-1,2-diyldinitrilo)tetraacetic acid (50 mM final). Non-phosphorylated substrate and phosphorylated product peptides are separated and quantified using a Caliper LabChip 3000 instrument. […] Reactions are quenched by the addition of trichloroacetic acid (5% v/v final). Non-phosphorylated substrate and phosphorylated product peptides are separated by ultra performance LC and detected by a coupled triple quadrupole MS device applying multiple reaction monitoring (MRM) for quantification. The area of the MRM-extracted mass signal is used to assess the inhibition by test compounds. Equilibrium dissociation constant (Ki) values for ITK inhibitors are calculated from plots of activity vs. inhibitor concentration using Morrison's quadratic equation that accounts for the potential of tight binding, and by also applying the conversion factor that accounts for competitive inhibition and the concentration of ATP used in the assay relative to its apparent Michaelis constant (Km,app).
Usually Ki stands for a measure of affinity in units of concentration, obtained from inhibition or displacement. Read a low Ki as a stronger hold on the target. `Cn1cc(C(c2ccccc2)n2cc(NC(=O)c3n[nH]c4c3CC3CC3C4)cn2)cn1` (single isomer, unassigned) [Example 27a, N-(1-((1-methyl-1H-pyrazol-4-yl)(phenyl)methyl)-1H-pyrazol-4-yl)-1,4,4a,5,5a,6-hexahydro cyclopropa[f]indazole-3-carboxamide] registered an inhibition constant (Ki) of 30 nM.

In the case of `Cn1cc(C(c2ccccc2)n2cc(NC(=O)c3n[nH]c4c3CC3CC3C4)cn2)cn1` (single isomer, unassigned) [Example 27b, N-(1-((1-methyl-1H-pyrazol-4-yl)(phenyl)methyl)-1H-pyrazol-4-yl)-1,4,4a,5,5a,6-hexahydro cyclopropa[f]indazole-3-carboxamide], the inhibitory constant (Ki) stood at 11 nM.

The molecule `Cn1cc(C(c2ccccc2)n2cc(NC(=O)c3n[nH]c4c3CC3CC3C4)cn2)cn1` (single isomer, unassigned) [Example 27c, N-(1-((1-methyl-1H-pyrazol-4-yl)(phenyl)methyl)-1H-pyrazol-4-yl)-1,4,4a,5,5a,6-hexahydro cyclopropa[f]indazole-3-carboxamide] yielded a Ki of 45 nM. This Ki is about 4.1-fold higher than that of the molecule before. Molecule `Cn1cc(C(c2ccccc2)n2cc(NC(=O)c3n[nH]c4c3CC3CC3C4)cn2)cn1` (single isomer, unassigned) [Example 27d, N-(1-((1-methyl-1H-pyrazol-4-yl)(phenyl)methyl)-1H-pyrazol-4-yl)-1,4,4a,5,5a,6-hexahydro cyclopropa[f]indazole-3-carboxamide] came in with an inhibitory constant (Ki) of 96 nM. For `CN(C)CCC(c1ccccc1)n1cc(NC(=O)c2n[nH]c3c2CC2CC2C3)cn1` (single isomer, unassigned) [Example 28a, N-(1-(3-(dimethylamino)-1-phenylpropyl)-1H-pyrazol-4-yl)-1,4,4a,5,5a,6-hexahydrocyclopropa[f]indazole-3-carboxamide], the affinity, expressed as Ki, was 16 nM. Consider `CN(C)CCC(c1ccccc1)n1cc(NC(=O)c2n[nH]c3c2CC2CC2C3)cn1` (single isomer, unassigned) [Example 28b, N-(1-(3-(dimethylamino)-1-phenylpropyl)-1H-pyrazol-4-yl)-1,4,4a,5,5a,6-hexahydrocyclopropa[f]indazole-3-carboxamide], for which the affinity corresponds to a Ki of 6 nM. As for `CN(C)CCC(c1ccccc1)n1cc(NC(=O)c2n[nH]c3c2CC2CC2C3)cn1` (single isomer, unassigned) [Example 28c, N-(1-(3-(dimethylamino)-1-phenylpropyl)-1H-pyrazol-4-yl)-1,4,4a,5,5a,6-hexahydrocyclopropa[f]indazole-3-carboxamide], the inhibition constant (Ki) was found to be 155 nM. Against the preceding molecule, the Ki is about 26-fold higher. Under `CN(C)CCC(c1ccccc1)n1cc(NC(=O)c2n[nH]c3c2CC2CC2C3)cn1` (single isomer, unassigned) [Example 28d, N-(1-(3-(dimethylamino)-1-phenylpropyl)-1H-pyrazol-4-yl)-1,4,4a,5,5a,6-hexahydrocyclopropa[f]indazole-3-carboxamide] stands 98 nM.

The molecule `CN(C)CCC(c1cccc(C(F)(F)F)c1)n1cc(NC(=O)c2n[nH]c3c2CCC(C)(C)C3)cn1` (single isomer, unassigned) [Example 30a, N-(1-(3-(dimethylamino)-1-(3-(trifluoromethyl)phenyl)propyl)-1H-pyrazol-4-yl)-6,6-dimethyl-4,5,6,7-tetrahydro-1H-indazole-3-carboxamide] gave a Ki of 2 nM. As to `CN(C)CCC(c1cccc(C(F)(F)F)c1)n1cc(NC(=O)c2n[nH]c3c2CCC(C)(C)C3)cn1` (single isomer, unassigned) [Example 30b, N-(1-(3-(dimethylamino)-1-(3-(trifluoromethyl)phenyl)propyl)-1H-pyrazol-4-yl)-6,6-dimethyl-4,5,6,7-tetrahydro-1H-indazole-3-carboxamide], the affinity, expressed as Ki, was 4 nM. Consider `CC1(C)CCc2c(C(=O)Nc3cnn(C(c4ccccc4)C4CNC4)c3)n[nH]c2C1` (single isomer, unassigned) [Example 34a, N-(1-(azetidin-3-yl(phenyl)methyl)-1H-pyrazol-4-yl)-6,6-dimethyl-4,5,6,7-tetrahydro-1H-indazole-3-carboxamide], for which the inhibition constant (Ki) was 3 nM.

With `CC1(C)CCc2c(C(=O)Nc3cnn(C(c4ccccc4)C4CNC4)c3)n[nH]c2C1` (single isomer, unassigned) [Example 34b, N-(1-(azetidin-3-yl(phenyl)methyl)-1H-pyrazol-4-yl)-6,6-dimethyl-4,5,6,7-tetrahydro-1H-indazole-3-carboxamide], the Ki came to 0.7 nM. Then `Cn1cc(C(c2ccccc2)n2cc(NC(=O)c3n[nH]c4c3C3CC3CC4)cn2)cn1` (single isomer, unassigned) [Example 35a, N-(1-((1-methyl-1H-pyrazol-4-yl)(phenyl)methyl)-1H-pyrazol-4-yl)-3,4,5,5a,6,6a-hexahydro cyclopropa[e]indazole-1-carboxamide], with 13 nM.

`Cn1cc(C(c2ccccc2)n2cc(NC(=O)c3n[nH]c4c3C3CC3CC4)cn2)cn1` (single isomer, unassigned) [Example 35b, N-(1-((1-methyl-1H-pyrazol-4-yl)(phenyl)methyl)-1H-pyrazol-4-yl)-3,4,5,5a,6,6a-hexahydro cyclopropa[e]indazole-1-carboxamide] gave an inhibition constant Ki of 2 nM. Under `Cn1cc(C(c2ccccc2)n2cc(NC(=O)c3n[nH]c4c3C3CC3CC4)cn2)cn1` (single isomer, unassigned) [Example 35c, N-(1-((1-methyl-1H-pyrazol-4-yl)(phenyl)methyl)-1H-pyrazol-4-yl)-3,4,5,5a,6,6a-hexahydro cyclopropa[e]indazole-1-carboxamide] stands 220 nM. The molecule `Cn1cc(C(c2ccccc2)n2cc(NC(=O)c3n[nH]c4c3C3CC3CC4)cn2)cn1` (single isomer, unassigned) [Example 35d, N-(1-((1-methyl-1H-pyrazol-4-yl)(phenyl)methyl)-1H-pyrazol-4-yl)-3,4,5,5a,6,6a-hexahydro cyclopropa[e]indazole-1-carboxamide] showed a Ki of 190 nM.

Consider `CC(=O)N1CC(C(c2ccccc2)n2cc(NC(=O)c3n[nH]c4c3CCC(C)(C)C4)cn2)C1` (single isomer, unassigned) [Example 37a, N-(1-((1-acetylazetidin-3-yl)(phenyl)methyl)-1H-pyrazol-4-yl)-6,6-dimethyl-4,5,6,7-tetrahydro-1H-indazole-3-carboxamide], for which the Ki worked out at 14 nM. For the molecule `CC(=O)N1CC(C(c2ccccc2)n2cc(NC(=O)c3n[nH]c4c3CCC(C)(C)C4)cn2)C1` (single isomer, unassigned) [Example 37b, N-(1-((1-acetylazetidin-3-yl)(phenyl)methyl)-1H-pyrazol-4-yl)-6,6-dimethyl-4,5,6,7-tetrahydro-1H-indazole-3-carboxamide], the affinity corresponds to a Ki of 2 nM. Compared with the last molecule, the Ki is about 7-fold lower.

Regarding `CN1CC(C(c2ccccc2)n2cc(NC(=O)c3n[nH]c4c3CCC(C)(C)C4)cn2)C1` (single isomer, unassigned) [Example 38a, 6,6-dimethyl-N-(1-((1-methylazetidin-3-yl)(phenyl)methyl)-1H-pyrazol-4-yl)-4,5,6,7-tetrahydro-1H-indazole-3-carboxamide], affinity was put at a Ki of 4 nM. This Ki is about 2-fold higher than that of the molecule before. In the case of `CN1CC(C(c2ccccc2)n2cc(NC(=O)c3n[nH]c4c3CCC(C)(C)C4)cn2)C1` (single isomer, unassigned) [Example 38b, 6,6-dimethyl-N-(1-((1-methylazetidin-3-yl)(phenyl)methyl)-1H-pyrazol-4-yl)-4,5,6,7-tetrahydro-1H-indazole-3-carboxamide], the Ki was determined as 0.5 nM. In turn, `CNCCC(c1ccccc1)n1cc(NC(=O)c2n[nH]c3c2CCC(C)(C)C3)cn1` (single isomer, unassigned) [Example 39a, 6,6-dimethyl-N-(1-(3-(methylamino)-1-phenylpropyl)-1H-pyrazol-4-yl)-4,5,6,7-tetrahydro-1H-indazole-3-carboxamide] came in with a Ki of 0.7 nM. Turning to `CNCCC(c1ccccc1)n1cc(NC(=O)c2n[nH]c3c2CCC(C)(C)C3)cn1` (single isomer, unassigned) [Example 39b, 6,6-dimethyl-N-(1-(3-(methylamino)-1-phenylpropyl)-1H-pyrazol-4-yl)-4,5,6,7-tetrahydro-1H-indazole-3-carboxamide], the affinity corresponds to a Ki of 6 nM. Turning to `CC1(C)CCc2c(C(=O)Nc3cnn(C(CCN)c4ccccc4)c3)n[nH]c2C1` (single isomer, unassigned) [Example 42a, N-(1-(3-amino-1-phenylpropyl)-1H-pyrazol-4-yl)-6,6-dimethyl-4,5,6,7-tetrahydro-1H-indazole-3-carboxamide], affinity was put at a Ki of 10 nM.
